# From article PMC11887212 (Journal of Hematology & Oncology, 2025)
# Target: sorcin (Homo sapiens, UniProt P30626)
# Assay: SPR
# Type: binding
# Sequence of sorcin (P30626 whole entry): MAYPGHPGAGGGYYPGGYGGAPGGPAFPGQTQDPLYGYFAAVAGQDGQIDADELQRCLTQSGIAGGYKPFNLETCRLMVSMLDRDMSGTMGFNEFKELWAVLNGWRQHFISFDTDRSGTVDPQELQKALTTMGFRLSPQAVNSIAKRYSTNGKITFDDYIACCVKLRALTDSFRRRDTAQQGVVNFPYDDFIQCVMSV
compound,measurement,value
"CC1=C(O)C(=O)C=C2C1=CC=C1[C@@]2(C)CC[C@@]2(C)[C@@H]3C[C@](C)(C(=O)O)CC[C@]3(C)CC[C@]12C [compound 1, celastrol]",Kd,2.13 µM
